From EP4410284A1, “COMPOUND AND METHOD FOR THE TREATMENT OF ZELLWEGER SPECTRUM DISORDER” (Apteeus, priority 2023, dated 2024) come the findings set out here.

Where two headings read alike, the source gives them in different places.

Data set [1] relates to GM16513 cells. Type of data set: cell-based. As to conditions: 3 days, PI positive cells (dead cells).
Method: (§4) Images were acquired using the EnSight multimode plate reader (PerkinElmer) and analysis was done using Columbus analysis software (PerkinElmer). […] Then the total number of cells and the % of dead cells was calculated.
(§5) All HDAC inhibitors were tested at 1.3 and 10 µM for 3 days on GM16513 and PEX405 cells.
Data set [2] relates to PEX405 cells. Nature of the data set: Catalase import immunofluorescence, high-content screening (% importing cells). Type of data set: cell-based, human. As to conditions: for Concentration (lower dose leading to the maximum effect) / Importing cells (%): PEX405 (PEX1); for Importing cells (%): at the lower dose leading to the maximum effect (see E12); for % Importing cells: PEX405 cells, 3 days.

For data set [3], the system named is PEX405 cells. The class given is cell-based. As to conditions: 3 days, PI positive cells (dead cells).
Method: as §4, §5
For data set [4], the system named is GM11335. As to the kind of experiment: Catalase import immunofluorescence (% importing cells). The class given is cell-based, human. As to conditions: GM11335 (PEX26); for Importing cells (%): at the lower dose leading to the maximum effect (see E20). As for the experimental part: (§1) Primary fibroblasts were seeded at 500-700 cells per well in 384-well plates and grown at 37°C overnight. Cells were treated with test compounds or 0.1% DMSO for 3 days. After 3 days and a wash with PBS, cells were fixed with 4% paraformaldehyde (Electron Microscopy Sciences) in PBS for 20 minutes. After 3 washes with PBS, the cells were permeabilized and blocked with 0.3% Triton X-100, 1% BSA in PBS for 30 minutes at room temperature followed by 3 washes with 1% BSA in PBS. The cells were incubated with a rabbit Catalase polyclonal antibody (#12980 Cell signaling) overnight at 4°C. Following 3 washes with PBS containing 0.1% Tween-20, the cells were incubated for 1 h at room temperature with a conjugated goat anti-rabbit secondary antibody Alexa Fluor 647 (Ab150083-Abcam). The cells were then washed 3 times with PBS and Hoechst 33342 (H3570-ThermoFisher Scientific) + HCS Cellmask Blue (H32720 - ThermoFisher Scientific) staining was performed at 0.1 µg/ml and 0.4 µg/mL respectively for 30 minutes at room temperature. The cells were finally washed 3 times with PBS and fluorescent images were acquired using the INCell Analyzer 6000 imaging platform (GE Healthcare Life Sciences).
(§2) Images analysis was done using Columbus analysis software (PerkinElmer). DAPI channel was used to find nuclei (Hoechst 33342) and cytoplasm (HCS CellMask Blue) and border objects were removed. Cy5 channel (AlexaFluor 647) was used to find spots corresponding to peroxisomes which correctly import catalase. Cells were classified as importing or non-importing cells using a linear classifier method after training with images of wells containing Healthy cells and PEX1 deficient cells. The number of importing or non-importing cells was calculated. Finally, results were expressed as % of importing cells.
(§3) Among the HDAC inhibitors of example 2, 4 were tested on other cells which are PEX1, PEX6 or PEX26 deficient.

Data set [5] has as its system GM 17398. The data set is described as above. The class given is cell-based, human. As to conditions: GM 17398 (PEX26 deficient); for Importing cells (%): at the lower dose leading to the maximum effect (see E24). As for the experimental part:
as §1, §2, §3

Data set [6] has as its system PEX506. The description is as above. The class given is cell-based, human. As to conditions: PEX506 (PEX6); for Importing cells (%): at the lower dose leading to the maximum effect (see E16). As for the experimental part: as §1, §2, §3
Data set [7] concerns PEX607. The data set is described as above. The class given is cell-based, human. To be noted: PEX607 (PEX6); for Importing cells (%): at the lower dose leading to the maximum effect (see E18). As for the experimental part:
as §1, §2, §3

Data set [8] relates to GM 16865. Described as above. The class given is cell-based, human. To be noted: GM 16865 (PEX26); for Importing cells (%): at the lower dose leading to the maximum effect (see E22). As for the experimental part:
as §1, §2, §3

Data set [9] deals with PEX304. The description is as above. The class given is cell-based, human. To be noted: PEX304 (PEX1); for Importing cells (%): at the lower dose leading to the maximum effect (see E14). As for the experimental part: as §1, §2, §3
For data set [10], the system named is GM16513 cells. As to the kind of experiment: Catalase import immunofluorescence, high-content screening (% importing cells). Type of data set: cell-based, human. As to conditions: GM16513 cells, 3 days; for EC50 / Emax: Homo sapiens, 72 h, dose response with 6 concentrations; for EC50: read-out: EC50; for Emax: read-out: Max Efficacy (% Importing cells).
Method: Images analysis was done using Columbus analysis software (PerkinElmer). DAPI channel was used to find nuclei (Hoechst 33342) and cytoplasm (HCS CellMask Blue) and border objects were removed. Cy5 channel (AlexaFluor 647) was used to find spots corresponding to peroxisomes which correctly import catalase. […] The number of importing or non-importing cells was calculated. Finally, results were expressed as % of importing cells.
The cytotoxicity was assessed in parallel using a double nucleus staining with Hoechst 33342 and Propidium Iodide (PI).
The EC50 and maximum efficacy of these inhibitors were determined.

Consider `O=C(CCCCCCNC(=O)c1cnc(N(c2ccccc2)c2ccccc2)nc1)NO` [Ricolinostat], for which the “% PI+ cells” value came out at 2% in [1] (1.3 µM), 5% in data set [1] (10 µM), 1% in data set [3] (1.3 µM) and 1% in [3] (10 µM). Moreover, the “Concentration (lower dose leading to the maximum effect)” value in data set [2] came out at 10 µM; in data set [4], 10 µM; in data set [5], 30 µM; in data set [6] it was 0.33 µM; in [7], 3 µM; in data set [8], 10 µM. Also, the “Concentration (lower dose leading to the maximum effect)” value in [9] stood at 10 µM. Besides, the “Importing cells (%)” value in data set [2] was determined as 27%; in [4], 18%; in data set [5], 0%; in data set [6], 55%; in data set [7], 40%; in data set [8] it was 20%. Moreover, the “Importing cells (%)” value in data set [9] worked out at 5%. The “% Importing cells” value in data set [2] (1.3 µM) was found to be 4%; in data set [2] (10 µM), 35%; in [10] (1.3 µM), 30%; in [10] (10 µM) it was 89%. Moreover, the EC50 in [10] worked out at 2760 nM. Further, the Emax in data set [10] came out at 96%.
Take `Nc1cc(F)ccc1NC(=O)c1ccc(CNC(=O)/C=C/c2cccnc2)cc1` [Tucidinostat]: the “% PI+ cells” value in data set [1] (1.3 µM) is 1%; in [1] (10 µM) it was 4%; in data set [3] (1.3 µM), 0%; in data set [3] (10 µM), 2%. Moreover, the “% Importing cells” value in data set [2] (1.3 µM) is 14%; in [2] (10 µM), 28%; in data set [10] (1.3 µM), 43%; in [10] (10 µM), 64%. For the same compound, the EC50 in [10] was determined as 1500 nM. Moreover, the Emax in data set [10] came to 70%.
`CCCCNNC(=O)c1ccc(Br)cc1` [UF010]: the “% PI+ cells” value in data set [1] (1.3 µM) came to 1%; in data set [1] (10 µM), 1%; in data set [3] (1.3 µM), 0%; in data set [3] (10 µM) it was 1%. Moreover, the “% Importing cells” value in data set [2] (1.3 µM) is listed as 3%; in data set [2] (10 µM), 2%; in data set [10] (1.3 µM) it was 12%; in data set [10] (10 µM), 16%.
Regarding `O=C(CCCCCCC(=O)Nc1ccccc1)NO` [Vorinostat], the “% PI+ cells” value in data set [1] (1.3 µM) was found to be 2%; in [1] (10 µM), 9%; in data set [3] (1.3 µM), 1%; in data set [3] (10 µM), 9%. The “Concentration (lower dose leading to the maximum effect)” value in data set [2] is listed as 10 µM; in data set [4] it was 3 µM; in data set [5] it was 30 µM; in data set [6], 0.33 µM; in data set [7] it was 3 µM; in data set [8], 3 µM. In addition, the “Concentration (lower dose leading to the maximum effect)” value in data set [9] stood at 3 µM. Besides, the “Importing cells (%)” value in data set [2] is recorded as 16%; in [4] it was 25%; in data set [5], 2%; in data set [6], 57%; in [7], 48%; in [8], 27%. Also, in [9], the “Importing cells (%)” value amounted to 8%. The “% Importing cells” value in data set [2] (1.3 µM) came to 13%; in data set [2] (10 µM), 16%; in data set [10] (1.3 µM), 35%; in data set [10] (10 µM), 96%. Besides, in data set [10], the Emax was found to be 90%.
Take ACY-1083: the “% PI+ cells” value in data set [1] (1.3 µM) is 2%; in [1] (10 µM), 1%; in data set [3] (1.3 µM), 1%; in data set [3] (10 µM), 1%. Further, the “% Importing cells” value in data set [2] (1.3 µM) is 5%; in data set [2] (10 µM) it was 4%; in data set [10] (1.3 µM), 17%; in data set [10] (10 µM), 42%.
With HDACs/mTOR Inhibitor 1, the “% PI+ cells” value amounted to 14% in data set [1] (1.3 µM), 24% in data set [1] (10 µM), 8% in [3] (1.3 µM) and 40% in data set [3] (10 µM). Moreover, the “% Importing cells” value is recorded as 9% in [2] (1.3 µM), 33% in [2] (10 µM), 77% in [10] (1.3 µM) and 96% in [10] (10 µM).

In general, EC50 refers to the concentration giving half of the maximal effect.
